Source: patent US9156853B2, “AKT inhibitor compounds for treatment of cancer” (ALMAC DISCOVERY LIMITED, priority 2012, dated 2015)
Structures can show the parent of a compound that is named as a salt.

Key:
AKT3 = biological target: T1, AKT3 (Homo sapiens, UniProt Q9Y243); test: AKT Kinase Assay (IMAP fluorescent polarisation), AKT3 isoform; type: biochemical; conditions: for IC50: activated AKT3, FAM Crosstide substrate; for potency against AKT3 compared with the comparator compound: compared with the non-hydroxylated Compound A, F or L
T1 construct: purchased SignalChem
Procedure: (§1) Testing of the compounds was performed using an AKT Kinase Assay:
(§2) Activated AKT isoforms 1, 2 and 3 were assayed utilising a 5′ FAM Crosstide (Seq. GRPRTSSFAEG-OH). The extent of kinase phosphorylation was determined by fluorescent polarisation using IMAP progressive binding reagent, which introduces binding beads which allow the reagent to specifically bind to phosphate residues via covalent co-ordination complex bonds.
(§3) iMAP binding solution stops Crosstide/kinase interaction and specifically binds phosphorylated substrates. The degree of phosphorylation is determined by fluorescent polarisation (excitation 485 nm; emission 528 nm) or the reduction in speed of rotation of the excited substrate.
(§4) The following materials were used in the assay: • a) Activated AKT isoforms (SignalChem.) dissolved in Complete Reaction buffer at a predetermined concentration selected so that the assay was carried out in the linear range. • b) AKT substrate peptide: FAM Crosstide (R7110) Molecular Devices, diluted in complete reaction buffer. • c) iMAP Progressive Screening Express Kit (R8127) Molecular Devices • d) Complete Reaction Buffer containing 0.1% BSA, 10 mM Tris-HCl, 10 mM MgCl2, 0.05% NaN3 and 0.01% phosphate free BSA, 1 mM DTT • e) Progressive Binding Solution containing 75% Buffer A, 25% Buffer B and low volume Binding Reagent which contains the binding entity for the assay • f) ATP diluted in complete reaction buffer • g) Black polystyrene 384 well assay plates (Nunc). • h) Biotek Synergy 4 Hybrid Plate reader.
(§5) 5 μl of test compound was dissolved in DMSO (Sigma Aldrich) and serially diluted in complete reaction buffer to give a fourteen point half log dose response and plated into 384 well black plates. The compound was incubated at room temperature with activated AKT isoform (5 μl) at the predetermined concentration, for 45 min.
(§6) 2.5 μl of ATP solution mixed with 2.5 μl of AKT substrate peptide (FAM Crosstide (R7110) Molecular Devices) were dispensed into each well and the plate centrifuged at 1000 rpm for 20 seconds to ensure homogenous mixing of reagents. The reaction mix was incubated in the dark for 1 h at room temperature.
(§7) The kinase reaction was stopped by the addition of Progressive Binding Solution and the mixture allowed to equilibrate for 1 h in the dark, at room temperature.
(§8) The fluorescent polarisation generated in each well was determined using a […] Synergy 4 Hybrid plate reader. In brief, each reaction solution was excited at 485 nm with the emission measured at 528 nm in both the parallel and perpendicular pathway.
(§9) The polarisation value generated in each well was calculated by Gen5 software (Biotek) and the % inhibition of kinase activity compared to vehicle control was calculated via GraphPad Prism. IC50 values for each compound were calculated by non-linear regression analysis using Prism software.
(§10) All plates were internally controlled by two methods. Firstly, by calculating the signal:noise ratio; based on kinase polarisation without inhibitor and polarisation generated by complete reaction buffer in the absence of activated kinase. Secondly by determining IC50 values generated by known inhibitors of the AKT isoforms.
(§11) The data was analysed using GraphPad Prism, with IC50 values generated using non-linear regression of the data set.

[1] = Plasma protein binding (fraction unbound, human plasma); type: in vitro ADME
Procedure: (§12) SelectScreen® data was determined at Invitrogen. Plasma protein binding and pharmacokinetic analyses were determined using standard protocols.

kinases other than AKT1 = test: SelectScreen kinase panel (Invitrogen); type: biochemical; conditions: for >=80% in Selectscreen (at 10 uM) other than AKT1: number of kinases other than AKT1 with >=80% at 10 uM
Procedure: as §12

[2] = Pharmacokinetic analysis, half-life in rat; type: in vivo; conditions: for half-life: rat, in vivo, read-out: T½ (rat) h
Procedure: as §12

[3] = tested on: pAKT (Ser473) in PC3 cells; test: Inhibition of pAKT in PC3 cells; type: cell-based; conditions: Homo sapiens, PC-3, 24 h incubation, read-out: inhibition of pAKT in PC3 cell lines, IC50
Procedure: Analysis of Compound Effects on AKT Signalling Pathways: Inhibition of pAKT in PC3 Cells
PC3 cells were seeded overnight in 96 well plates followed by serum starvation for 4 h. Increasing concentrations of AKT inhibitor, in complete medium (RPMI 1640), were added to the cells and incubated for a further 24 h.
The cells were fixed in paraformaldehyde, permeabilised and blocked in BSA, followed by incubation with pAKT (Ser473) and total AKT antibody overnight (R&D Systems). Secondary antibody mixture was added, followed by a combination of fluorescent substrates added for a final incubation.
Fluorescent intensities for each antibody were read at 540/600 nm and 360/450 nm respectively on a Synergy 4 plate reader. The percentage change in fluorescent intensity was plotted against log concentration of inhibitor; to generate IC50 values (GraphPad Prism).

AKT2 = biological target: T2, AKT2 (Homo sapiens, UniProt P31751); test: AKT Kinase Assay (IMAP fluorescent polarisation), AKT2 isoform; type: biochemical; conditions: for IC50: activated AKT2, FAM Crosstide substrate; for potency against AKT2 compared with the comparator compound: compared with the non-hydroxylated Compound A, F or L
T2 construct: purchased SignalChem
Procedure: as §1, §2, §3, §4, §5, §6, §7, §8, §9, §10, §11

AKT1 = biological target: T3, AKT1 (Homo sapiens, UniProt P31749); test: AKT Kinase Assay (IMAP fluorescent polarisation), AKT1 isoform; type: biochemical; conditions: for IC50: activated AKT1, FAM Crosstide substrate; for potency against AKT1 compared with the comparator compound: compared with the non-hydroxylated Compound A, F or L
T3 construct: purchased SignalChem
Procedure: as §1, §2, §3, §4, §5, §6, §7, §8, §9, §10, §11

T1 sequence (Q9Y243 whole entry, canonical isoform): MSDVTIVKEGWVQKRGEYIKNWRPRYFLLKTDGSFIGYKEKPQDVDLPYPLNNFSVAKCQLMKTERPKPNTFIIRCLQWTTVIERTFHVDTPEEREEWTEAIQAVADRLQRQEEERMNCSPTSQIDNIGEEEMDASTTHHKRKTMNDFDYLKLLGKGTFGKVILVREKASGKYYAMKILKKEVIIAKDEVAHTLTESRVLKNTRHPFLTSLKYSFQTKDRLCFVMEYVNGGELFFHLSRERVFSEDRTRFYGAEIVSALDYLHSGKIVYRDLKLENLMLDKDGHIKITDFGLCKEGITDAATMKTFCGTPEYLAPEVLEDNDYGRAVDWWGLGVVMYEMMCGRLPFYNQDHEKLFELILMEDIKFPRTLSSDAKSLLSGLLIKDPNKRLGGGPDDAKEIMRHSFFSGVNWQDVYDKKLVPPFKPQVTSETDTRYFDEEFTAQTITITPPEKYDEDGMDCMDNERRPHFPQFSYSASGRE
T3 sequence (P31749 whole entry, canonical isoform): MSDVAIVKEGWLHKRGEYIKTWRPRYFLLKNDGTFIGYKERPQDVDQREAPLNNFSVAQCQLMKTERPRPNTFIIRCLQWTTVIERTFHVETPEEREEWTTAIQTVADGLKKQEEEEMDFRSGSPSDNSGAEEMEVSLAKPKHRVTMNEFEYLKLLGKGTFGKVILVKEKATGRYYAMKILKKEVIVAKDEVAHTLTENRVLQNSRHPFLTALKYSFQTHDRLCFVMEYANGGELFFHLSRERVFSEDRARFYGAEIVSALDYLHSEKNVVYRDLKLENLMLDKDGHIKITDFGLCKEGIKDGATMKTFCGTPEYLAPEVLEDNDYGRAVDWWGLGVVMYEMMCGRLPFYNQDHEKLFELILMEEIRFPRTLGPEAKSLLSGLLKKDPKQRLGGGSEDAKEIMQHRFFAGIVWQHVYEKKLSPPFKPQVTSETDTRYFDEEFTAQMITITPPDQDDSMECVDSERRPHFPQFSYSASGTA
T2 sequence (P31751 whole entry, canonical isoform): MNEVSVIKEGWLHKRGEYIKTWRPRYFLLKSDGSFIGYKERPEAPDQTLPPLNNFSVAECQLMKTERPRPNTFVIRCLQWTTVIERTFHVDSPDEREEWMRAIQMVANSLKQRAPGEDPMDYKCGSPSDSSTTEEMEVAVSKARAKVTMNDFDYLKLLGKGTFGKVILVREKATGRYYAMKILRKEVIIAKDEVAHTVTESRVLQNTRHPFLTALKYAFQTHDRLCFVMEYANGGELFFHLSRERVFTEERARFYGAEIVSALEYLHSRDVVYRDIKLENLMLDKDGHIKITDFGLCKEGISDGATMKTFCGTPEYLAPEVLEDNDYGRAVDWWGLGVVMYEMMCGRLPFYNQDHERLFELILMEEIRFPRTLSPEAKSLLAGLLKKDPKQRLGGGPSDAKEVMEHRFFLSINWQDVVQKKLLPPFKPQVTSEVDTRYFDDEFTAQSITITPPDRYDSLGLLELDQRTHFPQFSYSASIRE

SMILES	IC50 (AKT3)	potency against AKT3 compared with the comparator compound (AKT3)	fraction unbound [1]	unbound fraction (human plasma) compared with Compound A [1]	>=80% in Selectscreen (at 10 uM) other than AKT1 (kinases other than AKT1)	half-life [2]	T1/2 in rodent compared with Compound A [2]	IC50 [3]	IC50 (AKT2)	potency against AKT2 compared with the comparator compound (AKT2)	IC50 (AKT1)	potency against AKT1 compared with the comparator compound (AKT1)	off-target kinase activity in the SelectScreen panel compared with Compound A (kinases other than AKT1; compared with compound A)
C[C@]1(O)C[C@](N)(c2ccc(-c3oc4ncn(CC(F)(F)F)c(=O)c4c3-c3ccccc3)cc2)C1 [Compound 1, 6-(4-((1s,3s)-1-Amino-3-hydroxy-3-methylcyclobutyl)phenyl)-5-phenyl-3-(2,2,2-trifluoroethyl)furo[2,3-d]pyrimidin-4(3H)-one.HCl]	1000 to 6000 nM	improved potency	≥ 0.05	significantly higher unbound fraction	* (>2 kinases)	≤ 10 h	shorter T1/2	≤ 500 nM	≤ 20 nM	improved potency	300 to 1500 nM	improved potency	
N[C@]1(c2ccc(-c3oc4ncn(CC(F)(F)F)c(=O)c4c3-c3ccccc3)cc2)C[C@H](O)C1 [Compound 3, 6-(4-((1s,3s)-1-Amino-3-hydroxycyclobutyl)phenyl)-5-phenyl-3-(2,2,2-trifluoroethyl)furo[2,3-d]pyrimidin-4(3H)-one.HCl]	1000 to 6000 nM	improved potency						≤ 500 nM	≤ 20 nM	improved potency	300 to 1500 nM	improved potency	
C[C@]1(O)C[C@@](N)(c2ccc(-c3oc4ncn(CC(F)(F)F)c(=O)c4c3-c3ccccc3)cc2)C1 [Compound 4, 6-(4-((1r,3r)-1-Amino-3-hydroxy-3-methylcyclobutyl)phenyl)-5-phenyl-3-(2,2,2-trifluoroethyl)furo[2,3-d]pyrimidin-4(3H)-one.HCl]	≤ 1000 nM	improved potency			** (1-2 kinases)			≤ 500 nM	≤ 20 nM	improved potency	≤ 300 nM	improved potency	less off-target kinase activity
C[C@]1(O)C[C@@](N)(c2ccc(-c3sc4ncn(CC(F)(F)F)c(=O)c4c3-c3ccccc3)cc2)C1 [Compound 5, 6-(4-((1r,3r)-1-Amino-3-hydroxy-3-methylcyclobutyl)phenyl)-5-phenyl-3-(2,2,2-trifluoroethyl)thieno[2,3-d]pyrimidin-4(3H)-one.TFA]	1000 to 6000 nM	improved potency	0.02 to 0.05	significantly higher unbound fraction	** (1-2 kinases)	≤ 10 h	shorter T1/2	≤ 500 nM	20 to 100 nM	improved potency	≤ 300 nM	improved potency	
Cn1c(-c2ccc([C@]3(N)C[C@](C)(O)C3)cc2)c(-c2ccccc2)c2c(=O)n(CC(F)(F)F)cnc21 [Compound 6, 6-(4-((1r,3r)-1-Amino-3-hydroxy-3-methylcyclobutyl)phenyl)-7-methyl-5-phenyl-3-(2,2,2-trifluoroethyl)-3H-pyrrolo[2,3-d]pyrimidin-4(7H)-one.HCl]	1000 to 6000 nM	improved potency	0.02 to 0.05	significantly higher unbound fraction	*** (0 kinases)	≤ 10 h	shorter T1/2	≤ 500 nM	≤ 20 nM	improved potency	≤ 300 nM	improved potency	
Cn1c(-c2ccc([C@]3(N)C[C@@H](O)C3)cc2)c(-c2ccccc2)c2c(=O)n(CC(F)(F)F)cnc21 [Compound 7, 6-(4-((1s,3s)-1-Amino-3-hydroxycyclobutyl)phenyl)-7-methyl-5-phenyl-3-(2,2,2-trifluoroethyl)-3H-pyrrolo[2,3-d]pyrimidin-4(7H)-one.HCl]	1000 to 6000 nM	improved potency						≤ 500 nM	≤ 20 nM	improved potency	300 to 1500 nM	improved potency	
NC1(c2ccc(-c3oc4ncn(CC(F)(F)F)c(=O)c4c3-c3ccccc3)cc2)CCC1 [Compound A, reference compound]	> 6000 nM		≤ 0.02		* (>2 kinases)	> 24 h			20 to 100 nM		> 1500 nM		
